Reference: paper PMC7816212 (Nature, 2020)

Legend:
Format in all cases: binding
BCL6 [1] = biological target: BCL6 (Homo sapiens, UniProt P41182, E41A); assay: competitive TR-FRET, displacement of FITC-BCoR peptide
BCL6 [2] = biological target: BCL6 (Homo sapiens, UniProt A5PL18); assay: cryo-EM of the BCL6 filament
BCL6 [3] = biological target: BCL6 (Homo sapiens, UniProt P41182); assay: competitive TR-FRET, displacement of FITC-BCoR peptide

EC50 (BCL6 [2]) [nM] | SMILES | competitive TR-FRET, displacement of FITC-BCoR peptide (BCL6 [1]) | competitive TR-FRET, displacement of FITC-BCoR peptide (BCL6 [3])
64 | CNC(=O)COc1cc2cc(Nc3nc(N4C[C@H](C)C[C@H](C)C4)ncc3Cl)ccc2n(C)c1=O [BI-3802] | the E41A substitution did not impair drug binding to BCL6 (Extended Data Fig. 4f) | 
 | CNC(=O)COc1cc2cc(Nc3nc(N4CCC(C(=O)N(C)C)CC4)ncc3Cl)cc(OC)c2n(C)c1=O [BI-3812] |  | despite comparable affinity of both BI-3802 and BI-3812 to BCL6 (Extended Data Fig. 8h)
